Data from PMC9090415, “Discovery of small molecule inhibitors of Plasmodium falciparum apicoplast DNA polymerase” (Journal of Enzyme Inhibition and Medicinal Chemistry, 2022).

Molecular target: P. falciparum apicoplast DNA polymerase (Pf-apPOL) (Plasmodium falciparum, UniProt Q8ILY1)
Assay: Fluorescence-based high-throughput DNA polymerase assay (molecular beacon), primary screen and dose-response;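 on % inhibition ApPOL 90': test concentration in µM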;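 on % inhibition apPOL 180': test concentration in µM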
Type: biochemical
Settings: for DNA Pol: 90 min, 10 µM
Method in brief: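 Single-point screening used 10 µM compound with 20 nM polymerase, 20 nM hairpin substrate and 6 µM dNTPs for 90 min at 25 °C. Confirmatory titrations (2.5–80 µM) followed fluorescence at three times, and IC50 was derived from a fit including a cooperativity term n.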

[1] = DRC-2, 40', concentration 20 (unit not given)
[2] = DRC-2, 90', concentration 20 (unit not given)
[3] = DRC-2, 180', concentration 20 (unit not given)
[4] = primary screen value of the 186 hits, unit not given
[5] = primary screen value, head "DNA Pol", unit not given

P. falciparum apicoplast DNA polymerase (Pf-apPOL), sequence (Q8ILY1 entry or part of it): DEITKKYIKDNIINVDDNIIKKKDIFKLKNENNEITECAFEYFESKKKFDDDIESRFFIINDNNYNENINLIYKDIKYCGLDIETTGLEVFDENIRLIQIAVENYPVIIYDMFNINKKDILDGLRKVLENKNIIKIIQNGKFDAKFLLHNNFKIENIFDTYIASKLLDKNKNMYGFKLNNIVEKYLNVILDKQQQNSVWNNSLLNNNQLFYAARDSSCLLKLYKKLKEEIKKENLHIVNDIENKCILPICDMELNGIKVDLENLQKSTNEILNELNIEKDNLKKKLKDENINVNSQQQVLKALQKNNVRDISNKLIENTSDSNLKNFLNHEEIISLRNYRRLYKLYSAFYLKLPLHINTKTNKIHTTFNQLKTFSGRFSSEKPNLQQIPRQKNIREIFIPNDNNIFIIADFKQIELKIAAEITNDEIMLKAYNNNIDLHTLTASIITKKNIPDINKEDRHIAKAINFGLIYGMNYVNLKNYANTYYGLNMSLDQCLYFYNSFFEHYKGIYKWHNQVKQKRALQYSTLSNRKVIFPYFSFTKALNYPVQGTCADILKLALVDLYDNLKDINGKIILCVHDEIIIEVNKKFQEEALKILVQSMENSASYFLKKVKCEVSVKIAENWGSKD

OC(C#Cc1ccccc1)c1ccco1 (stereo not shown) [Molecule 95, OC(c1ccco1)C#Cc1ccccc1]
% inhibition Apo pol 10' (DRC-1, concentration 2.5): 31.3113% | % inhibition Apo pol 10' (DRC-1, concentration 5): 57.2957% | % inhibition Apo pol 10' (DRC-1, concentration 10): 77.3144% | % inhibition Apo pol 10' (DRC-1, concentration 20): 80.9257% | % inhibition Apo pol 10' (DRC-1, concentration 40): 79.5386% | % inhibition Apo pol 10' (DRC-1, concentration 80): 69.6909% | % inhibition Apol 90' (DRC-1, 90', concentration 2.5): 17.4442% | % inhibition Apol 90' (DRC-1, 90', concentration 5): 42.0165% | % inhibition Apol 90' (DRC-1, 90', concentration 10): 68.6484% | % inhibition Apol 90' (DRC-1, 90', concentration 20): 80.4558% | % inhibition Apol 90' (DRC-1, 90', concentration 40): 83.9315% | % inhibition Apol 90' (DRC-1, 90', concentration 80): 80.7801% | % inhibition apPOL 180' (DRC-1, 180', concentration 2.5): 5.809% | % inhibition apPOL 180' (DRC-1, 180', concentration 5): 25.3082% | % inhibition apPOL 180' (DRC-1, 180', concentration 10): 55.1933% | % inhibition apPOL 180' (DRC-1, 180', concentration 20): 73.4768% | % inhibition apPOL 180' (DRC-1, 180', concentration 40): 83.0192% | % inhibition apPOL 180' (DRC-1, 180', concentration 80): 83.0007% | % inhibition Apol 40' (DRC-2, 40', concentration 10 (unit not given)): 60% | % inhibition Apol 40' [1]: 62% | % inhibition ApPOL 90' (DRC-2, 90', concentration 10 (unit not given)): 62% | % inhibition ApPOL 90' [2]: 67% | % inhibition ApPOL 90' (DRC-2, 90', concentration 40 (unit not given)): 66% | % inhibition ApPOL 90' (DRC-2, 90', concentration 80 (unit not given)): 60% | % inhibition apPOL 180' [3]: 66% | % inhibition apPOL 180' (DRC-2, 180', concentration 80 (unit not given)): 67% | % inhibition Apo pol 5' (DRC-2, concentration 2.5): 14% | % inhibition Apo pol 5' (DRC-2, concentration 5): 32% | % inhibition Apo pol 5' (DRC-2, concentration 10): 39% | % inhibition Apo pol 5' (DRC-2, concentration 20): 34% | % inhibition Apo pol 5' (DRC-2, concentration 40): 22% | % inhibition Apo pol 5' (DRC-2, concentration 80): -5% | % inhibition Apol 40' (DRC-2, 40', concentration 2.5): 15% | % inhibition Apol 40' (DRC-2, 40', concentration 5): 44% | % inhibition Apol 40' (DRC-2, 40', concentration 10): 60% | % inhibition Apol 40' (DRC-2, 40', concentration 20): 62% | % inhibition Apol 40' (DRC-2, 40', concentration 40): 59% | % inhibition Apol 40' (DRC-2, 40', concentration 80): 48% | % inhibition ApPOL 90' (DRC-2, 90', concentration 2.5): 12% | % inhibition ApPOL 90' (DRC-2, 90', concentration 5): 41% | % inhibition ApPOL 90' (DRC-2, 90', concentration 10): 62% | % inhibition ApPOL 90' (DRC-2, 90', concentration 20): 67% | % inhibition ApPOL 90' (DRC-2, 90', concentration 40): 66% | % inhibition ApPOL 90' (DRC-2, 90', concentration 80): 60% | % inhibition apPOL 180' (DRC-2, 180', concentration 2.5): 4.25% | % inhibition apPOL 180' (DRC-2, 180', concentration 5): 30% | % inhibition apPOL 180' (DRC-2, 180', concentration 10): 58% | % inhibition apPOL 180' (DRC-2, 180', concentration 20): 66% | % inhibition apPOL 180' (DRC-2, 180', concentration 40): 71% | % inhibition apPOL 180' (DRC-2, 180', concentration 80): 67% | DNA Pol [4]: 70 | DNA Pol [5]: 70

O=C(NCC1CCN(C2CCCC2)CC1)C(=O)NC1CCCC1 [KU0199596]
% inhibition Apo pol 10' (DRC-1, concentration 2.5): 0.01298% | % inhibition Apo pol 10' (DRC-1, concentration 5): -3.723% | % inhibition Apo pol 10' (DRC-1, concentration 10): 11.8369% | % inhibition Apo pol 10' (DRC-1, concentration 20): 30.2117% | % inhibition Apo pol 10' (DRC-1, concentration 40): 52.3157% | % inhibition Apo pol 10' (DRC-1, concentration 80): 62.5585% | % inhibition Apol 90' (DRC-1, 90', concentration 2.5): 3.739% | % inhibition Apol 90' (DRC-1, 90', concentration 5): 4.197% | % inhibition Apol 90' (DRC-1, 90', concentration 10): 23.1731% | % inhibition Apol 90' (DRC-1, 90', concentration 20): 45.2225% | % inhibition Apol 90' (DRC-1, 90', concentration 40): 64.9359% | % inhibition Apol 90' (DRC-1, 90', concentration 80): 71.081% | % inhibition apPOL 180' (DRC-1, 180', concentration 2.5): 10.6167% | % inhibition apPOL 180' (DRC-1, 180', concentration 5): 16.0151% | % inhibition apPOL 180' (DRC-1, 180', concentration 10): 39.3373% | % inhibition apPOL 180' (DRC-1, 180', concentration 20): 63.8149% | % inhibition apPOL 180' (DRC-1, 180', concentration 40): 81.7381% | % inhibition apPOL 180' (DRC-1, 180', concentration 80): 87.3658% | % inhibition Apo pol 5' (DRC-2, concentration 2.5): 6% | % inhibition Apo pol 5' (DRC-2, concentration 5): 9% | % inhibition Apo pol 5' (DRC-2, concentration 10): 24% | % inhibition Apo pol 5' (DRC-2, concentration 20): 35% | % inhibition Apo pol 5' (DRC-2, concentration 40): 45% | % inhibition Apo pol 5' (DRC-2, concentration 80): 45% | % inhibition Apol 40' (DRC-2, 40', concentration 2.5): 2.8% | % inhibition Apol 40' (DRC-2, 40', concentration 5): -3% | % inhibition Apol 40' (DRC-2, 40', concentration 10): 21% | % inhibition Apol 40' (DRC-2, 40', concentration 20): 34% | % inhibition Apol 40' (DRC-2, 40', concentration 40): 44% | % inhibition Apol 40' (DRC-2, 40', concentration 80): 41% | % inhibition ApPOL 90' (DRC-2, 90', concentration 2.5): 2.29% | % inhibition ApPOL 90' (DRC-2, 90', concentration 5): -11% | % inhibition ApPOL 90' (DRC-2, 90', concentration 10): 19% | % inhibition ApPOL 90' (DRC-2, 90', concentration 20): 30% | % inhibition ApPOL 90' (DRC-2, 90', concentration 40): 40% | % inhibition ApPOL 90' (DRC-2, 90', concentration 80): 39% | % inhibition apPOL 180' (DRC-2, 180', concentration 2.5): -0.788% | % inhibition apPOL 180' (DRC-2, 180', concentration 5): -84% | % inhibition apPOL 180' (DRC-2, 180', concentration 10): 8% | % inhibition apPOL 180' (DRC-2, 180', concentration 20): 16% | % inhibition apPOL 180' (DRC-2, 180', concentration 40): 30% | % inhibition apPOL 180' (DRC-2, 180', concentration 80): 34% | % inhibition Apol 40' (conc. 20, 40', DRC-2): 34% | % inhibition ApPOL 90' (conc. 20, 90', DRC-2): 30% | % inhibition Apo pol 5' (conc. 40, DRC-2): 45% | % inhibition apPOL 180' (conc. 40, 180', DRC-2): 30% | % inhibition Apo pol 5' (conc. 80, DRC-2): 45% | % inhibition apPOL 180' (conc. 80, 180', DRC-2): 34% | DNA Pol (primary screen value by plate and well): 24 | DNA Pol [4]: 24

CN(C)C1C(c2ccccc2)=C(c2ccccc2)SC(c2ccccc2)C1[N+](=O)[O-] (stereo not shown) [KU0268387]
% inhibition Apo pol 10' (DRC-1, concentration 2.5): 4.043% | % inhibition Apo pol 10' (DRC-1, concentration 5): 23.3831% | % inhibition Apo pol 10' (DRC-1, concentration 10): 45.0315% | % inhibition Apo pol 10' (DRC-1, concentration 20): 49.4618% | % inhibition Apo pol 10' (DRC-1, concentration 40): 64.8423% | % inhibition Apo pol 10' (DRC-1, concentration 80): 77.5449% | % inhibition Apol 90' (DRC-1, 90', concentration 2.5): 3.398% | % inhibition Apol 90' (DRC-1, 90', concentration 5): 22.5056% | % inhibition Apol 90' (DRC-1, 90', concentration 10): 44.0197% | % inhibition Apol 90' (DRC-1, 90', concentration 20): 52.549% | % inhibition Apol 90' (DRC-1, 90', concentration 40): 68.5649% | % inhibition Apol 90' (DRC-1, 90', concentration 80): 83.9893% | % inhibition apPOL 180' (DRC-1, 180', concentration 2.5): 1.708% | % inhibition apPOL 180' (DRC-1, 180', concentration 5): 12.7714% | % inhibition apPOL 180' (DRC-1, 180', concentration 10): 32.8138% | % inhibition apPOL 180' (DRC-1, 180', concentration 20): 41.7834% | % inhibition apPOL 180' (DRC-1, 180', concentration 40): 60.315% | % inhibition apPOL 180' (DRC-1, 180', concentration 80): 80.8354% | % inhibition Apol 40' [1]: 53% | % inhibition ApPOL 90' [2]: 53% | % inhibition apPOL 180' [3]: 47% | % inhibition Apo pol 5' (DRC-2, concentration 2.5): 0.589% | % inhibition Apo pol 5' (DRC-2, concentration 5): 19% | % inhibition Apo pol 5' (DRC-2, concentration 10): 32% | % inhibition Apo pol 5' (DRC-2, concentration 20): 40% | % inhibition Apo pol 5' (DRC-2, concentration 40): 42% | % inhibition Apo pol 5' (DRC-2, concentration 80): 47% | % inhibition Apo pol 5' (DRC-2, concentration 80 (unit not given)): 47% | % inhibition Apol 40' (DRC-2, 40', concentration 2.5): 1.84% | % inhibition Apol 40' (DRC-2, 40', concentration 5): 25% | % inhibition Apol 40' (DRC-2, 40', concentration 10): 39% | % inhibition Apol 40' (DRC-2, 40', concentration 20): 53% | % inhibition Apol 40' (DRC-2, 40', concentration 40): 60% | % inhibition Apol 40' (DRC-2, 40', concentration 80): 68% | % inhibition ApPOL 90' (DRC-2, 90', concentration 2.5): 0.484% | % inhibition ApPOL 90' (DRC-2, 90', concentration 5): 23% | % inhibition ApPOL 90' (DRC-2, 90', concentration 10): 38% | % inhibition ApPOL 90' (DRC-2, 90', concentration 20): 53% | % inhibition ApPOL 90' (DRC-2, 90', concentration 40): 62% | % inhibition ApPOL 90' (DRC-2, 90', concentration 80): 71% | % inhibition apPOL 180' (DRC-2, 180', concentration 2.5): -3.51% | % inhibition apPOL 180' (DRC-2, 180', concentration 5): 15% | % inhibition apPOL 180' (DRC-2, 180', concentration 10): 31% | % inhibition apPOL 180' (DRC-2, 180', concentration 20): 47% | % inhibition apPOL 180' (DRC-2, 180', concentration 40): 58% | % inhibition apPOL 180' (DRC-2, 180', concentration 80): 70% | DNA Pol [4]: 78 | DNA Pol [5]: 78

Cc1ccc(C)c(CSc2nc(C3CCCCC3)c(C#N)c(=O)[nH]2)c1 [Molecule 6]
IC50 (supplemental file 2, sheet IC50 nontoxic compounds, Pf-apPOL): 6.42 µM
